The text below walks through data of patent publication US20250059174A1, “Pharmaceutical Compounds and Compositions as C-Kit Kinase Inhibitors” (Enanta Pharmaceuticals, Inc., priority 2023, published 2025).

By pIC50 is commonly meant −log10 of the IC50, conventionally taken in molar units.

pIC50: −log10 of the molar value.

In this experiment the target is Recombinant human c-KIT kinase (Homo sapiens (Human), UniProt P10721). Put plainly: c-KIT kinase chemiluminescence assay (ADP-Glo). The experiment is classed as biochemical. The following applies: ATP 50 μM. As for the experimental part: The c-KIT Kinase Enzyme System (V4498) and ADP-Glo™ Kinase Assay kit (V6930) were purchased from Promega (Madison, WI). DMSO (D2650) was purchased from Sigma-Aldrich (Burlington, MA).
Chain of Recombinant human c-KIT kinase (P10721 26-976): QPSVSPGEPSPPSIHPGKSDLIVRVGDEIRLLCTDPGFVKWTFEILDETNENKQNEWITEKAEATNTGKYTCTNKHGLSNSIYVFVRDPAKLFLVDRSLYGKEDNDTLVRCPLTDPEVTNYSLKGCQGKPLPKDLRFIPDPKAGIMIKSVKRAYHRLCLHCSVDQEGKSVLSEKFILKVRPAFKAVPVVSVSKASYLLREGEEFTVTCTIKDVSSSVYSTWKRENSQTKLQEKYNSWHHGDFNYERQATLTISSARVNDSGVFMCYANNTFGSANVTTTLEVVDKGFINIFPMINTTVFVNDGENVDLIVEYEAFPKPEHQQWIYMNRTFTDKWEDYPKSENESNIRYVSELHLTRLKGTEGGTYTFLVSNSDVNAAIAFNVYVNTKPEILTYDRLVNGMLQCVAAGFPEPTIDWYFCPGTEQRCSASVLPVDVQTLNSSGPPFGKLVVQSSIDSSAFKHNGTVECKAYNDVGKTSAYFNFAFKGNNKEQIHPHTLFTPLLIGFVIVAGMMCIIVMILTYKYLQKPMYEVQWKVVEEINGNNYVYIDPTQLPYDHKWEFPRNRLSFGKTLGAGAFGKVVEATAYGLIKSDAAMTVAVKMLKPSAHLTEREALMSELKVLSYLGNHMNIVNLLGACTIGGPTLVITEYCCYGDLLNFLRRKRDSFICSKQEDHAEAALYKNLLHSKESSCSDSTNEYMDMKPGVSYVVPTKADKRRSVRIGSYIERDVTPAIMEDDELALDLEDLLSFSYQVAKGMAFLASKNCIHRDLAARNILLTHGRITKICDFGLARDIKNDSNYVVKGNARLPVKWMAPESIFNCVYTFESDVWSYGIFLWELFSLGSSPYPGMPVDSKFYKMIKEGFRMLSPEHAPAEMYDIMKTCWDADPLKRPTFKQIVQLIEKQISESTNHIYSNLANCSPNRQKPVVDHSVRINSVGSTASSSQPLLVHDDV
Kinase Reaction: The kinase assay was based on the recommended protocol by c-KIT Kinase Enzyme System from Promega. Recombinant human c-KIT kinase in 3 μL of assay buffer (40 mM Tris pH 7.5, 20 mM MgCl2, 0.1 mg/mL BSA and 50 μM DTT) was added to the test or high control wells and 3 μL of assay buffer was added to the low control wells. The microplate was centrifuged at 800 rotations per minute (rpm) for 60 s and incubated at room temperature (RT) for 30 min. Next, 2 μL of buffered ATP and polyEY substrate solution was added to all wells. The microplate was centrifuged at 800 rpm for 60 s and incubated at RT for 2 h.
ADP detection with ADP-Glo™ Kinase Assay: After the kinase reaction incubation, 5 μL of ADP-Glo™ reagent was added to all wells. The microplate was centrifuged at 800 rpm for 60 s and incubated at RT for 40 min. Ten microliter (10 μL) of Kinase Detection Reagent (Luciferin-Luciferase system) was then added to all wells. The microplate was centrifuged at 800 rpm for 60 s and incubated at RT for 60 min. Kinase activity was measured as increase in luminescence at RT in an Envision plate reader equipped with 560 nm filters and operating in endpoint mode. Data Analysis: Endpoint chemiluminescence from high and low control wells were used to calculate normalized c-KIT activity at various concentrations of test compounds. The normalized activities were fitted to inhibitor-versus-normalized response fit in GraphPad Prism 7 to determine half-maximal inhibitory concentration (IC50) and hill coefficient values (H).
Where I is the inhibitor concentration and H is the Hill coefficient.
On the technique in general: In ADP-Glo the light output rises with the ADP produced.
For `Cc1ccc(-c2noc([C@H]3C[C@@H]3F)n2)cc1NC(=O)c1cnc2cnccn12` [Example 1], the pIC50 was 6.00 to 7.00.
In the case of `Cc1ccc(-c2noc([C@H]3C[C@@H]3F)n2)cc1NC(=O)c1ccnc2cnccc12` [Example 8] it was below 6.00; in that of `Cc1ccc(-c2noc([C@H]3C[C@@H]3F)n2)cc1NC(=O)c1cnn2c1CCCC2` [Example 9], below 6.00; in that of `Cc1ccc(-c2noc([C@H]3C[C@@H]3F)n2)cc1NC(=O)c1cnc2n1CCCC2` [Example 10], 6.00 to 7.00.
In the case of `Cc1ccc(-c2noc([C@H]3C[C@@H]3F)n2)cc1NC(=O)c1cnn(C)c1C` [Example 11] it was below 6.00; in that of `Cc1ccc(-c2noc([C@H]3C[C@@H]3F)n2)cc1NC(=O)c1ccnc2ncccc12` [Example 12], below 6.00; in that of `Cc1ccc(-c2noc([C@H]3C[C@@H]3F)n2)cc1NC(=O)c1cncn1-c1ccccc1` [Example 17], below 6.00.
The figure for `Cc1ccc(-c2noc([C@H]3C[C@@H]3F)n2)cc1NC(=O)c1cnn2ncccc12` [Example 18] is below 6.00; for `Cc1ccc(-c2noc([C@H]3C[C@@H]3F)n2)cc1NC(=O)c1csc2cncnc12` [Example 19] it is below 6.00.
As for `Cc1ccc(-c2noc([C@H]3C[C@@H]3F)n2)cc1NC(=O)c1nnc2ccccn12` [Example 20], the pIC50 was below 6.00.
For the compound `Cc1ccc(-c2noc([C@H]3C[C@@H]3F)n2)cc1NC(=O)c1nnn2ccccc12` [Example 21], the pIC50 was below 6.00.
For the compound `Cc1ccc(-c2noc([C@H]3C[C@@H]3F)n2)cc1NC(=O)c1cn(-c2ccccc2)nn1` [Example 22], the pIC50 is below 6.00.
For `Cc1ccc(-c2noc([C@H]3C[C@@H]3F)n2)cc1NC(=O)c1cnc(-c2ccccc2F)s1` [Example 24], the pIC50 is 6.00 to 7.00.
In the case of `Cc1ccc(-c2noc([C@H]3C[C@@H]3F)n2)cc1NC(=O)c1cnc2ncccn12` [Example 25] it was below 6.00.
For `Cc1ccc(-c2noc([C@H]3C[C@@H]3F)n2)cc1NC(=O)c1ccnc2ccnn12` [Example 26], the negative logarithm of the IC50 (pIC50) is below 6.00.
As to `Cc1ccc(-c2noc([C@H]3C[C@@H]3F)n2)cc1NC(=O)c1cnc2ncccc2c1` [Example 28], the pIC50 is below 6.00.
Regarding `Cc1ccc(-c2noc([C@H]3C[C@@H]3F)n2)cc1NC(=O)c1cnc2sccc2c1` [Example 29], the pIC50 was below 6.00.
Regarding `Cc1ccc(-c2noc([C@H]3C[C@@H]3F)n2)cc1NC(=O)c1cnc2[nH]ncc2c1` [Example 31], the pIC50 was below 6.00.
Consider `Cc1ccc(-c2noc([C@H]3C[C@@H]3F)n2)cc1NC(=O)c1cnc2c(cnn2C(=O)C(C)C)c1` [Example 32], for which the pIC50 is below 6.00.
`Cc1ccc(-c2noc([C@H]3C[C@@H]3F)n2)cc1NC(=O)c1cnc2[nH]ccc2c1` [Example 33]: the pIC50 is below 6.00.
With `Cc1ccc(-c2noc([C@H]3C[C@@H]3F)n2)cc1NC(=O)c1cnc2cccn2c1` [Example 45], the pIC50 is below 6.00.
As to `Cc1ccc(-c2noc([C@H]3C[C@@H]3F)n2)cc1NC(=O)c1cnc2nccn2c1` [Example 46], the pIC50 is below 6.00.
In the case of `Cc1ccc(-c2noc([C@H]3C[C@@H]3F)n2)cc1NC(=O)c1cnc2ccnn2c1` [Example 47], the pIC50 is below 6.00.
Consider `Cc1ccc(-c2noc([C@H]3C[C@@H]3F)n2)cc1NC(=O)c1cnc2cn[nH]c2c1` [Example 48], for which the pIC50 was below 6.00.
Regarding `Cc1ccc(-c2noc([C@H]3C[C@@H]3F)n2)cc1NC(=O)c1cnc2cnn(C(=O)C(C)C)c2c1` [Example 49], the pIC50 was below 6.00.
The figure for `Cc1ccc(-c2noc([C@H]3C[C@@H]3F)n2)cc1NC(=O)c1cnc2ncsc2c1` [Example 50] is below 6.00.
As to `Cc1ccc(-c2noc([C@H]3C[C@@H]3F)n2)cc1NC(=O)c1cnn(-c2ccc(Cl)cc2)c1` [Example 51], the pIC50 was below 6.00.
On to `Cc1ccc(-c2noc([C@H]3C[C@@H]3F)n2)cc1NC(=O)c1cn(-c2ccccc2)nc1C` [Example 53], for which the pIC50 is below 6.00.
The figure for `Cc1ccc(-c2noc([C@H]3C[C@@H]3F)n2)cc1NC(=O)c1cnc2cnccc2c1` [Example 63] is below 6.00.
With `Cc1ccc(-c2noc([C@H]3C[C@@H]3F)n2)cc1NC(=O)c1cnc2ccncc2c1` [Example 64], the pIC50 is below 6.00.
The figure for `Cc1ccc(-c2noc([C@H]3C[C@@H]3F)n2)cc1NC(=O)c1cnc2ccccc2n1` [Example 65] is below 6.00; for `Cc1ccc(-c2noc([C@H]3C[C@@H]3F)n2)cc1NC(=O)c1cnc2[nH]cnc2c1` [Example 66] it is below 6.00; for `Cc1ccc(-c2noc([C@H]3C[C@@H]3F)n2)cc1NC(=O)c1cnc2c(c1)ncn2C(=O)C(C)C` [Example 67] it is below 6.00.
The figure for `Cc1ccc(-c2noc([C@H]3C[C@@H]3F)n2)cc1NC(=O)c1cn2ccsc2n1` [Example 68] is below 6.00; for `Cc1ccc(-c2noc([C@H]3C[C@@H]3F)n2)cc1NC(=O)c1cnn(-c2ccccn2)c1` [Example 75] it is 6.00 to 7.00; for `Cc1ccc(-c2noc([C@H]3C[C@@H]3F)n2)cc1NC(=O)c1cnn(-c2ccccc2Cl)c1` [Example 76] it is below 6.00.
On to `Cc1ccc(-c2noc([C@H]3C[C@@H]3F)n2)cc1NC(=O)c1cnc(-c2ccccc2)[nH]1` [Example 77], for which the pIC50 was below 6.00.
`COc1ccccc1-c1ncc(C(=O)Nc2cc(-c3noc([C@H]4C[C@@H]4F)n3)ccc2C)[nH]1` [Example 78]: the pIC50 was below 6.00.
`Cc1ccc(-c2noc([C@H]3C[C@@H]3F)n2)cc1NC(=O)c1cn[nH]c1-c1ccccc1` [Example 79]: the pIC50 is 6.00 to 7.00.
The figure for `COc1cccc(-n2cc(C(=O)Nc3cc(-c4noc([C@H]5C[C@@H]5F)n4)ccc3C)cn2)c1` [Example 80] is 6.00 to 7.00; for `Cc1ccc(-c2noc([C@H]3C[C@@H]3F)n2)cc1NC(=O)c1cnn(-c2cccc(Cl)c2)c1` [Example 81] it is below 6.00; for `Cc1ccc(-c2noc([C@H]3C[C@@H]3F)n2)cc1NC(=O)c1cnn(-c2cccc(Br)c2)c1` [Example 82] it is below 6.00.
In the case of `Cc1ccc(-c2noc([C@H]3C[C@@H]3F)n2)cc1NC(=O)c1cnn(-c2ccccc2)n1` [Example 83] it was below 6.00; in that of `Cc1ccc(-c2noc([C@H]3C[C@@H]3F)n2)cc1NC(=O)c1cnc(-c2ccccc2)s1` [Example 84], 6.00 to 7.00.
In the case of `Cc1ccc(-c2noc([C@H]3C[C@@H]3F)n2)cc1NC(=O)n1c(=O)[nH]c2ccccc21` [Example 86] it was below 6.00.
With `Cc1ccc(-c2noc([C@H]3C[C@@H]3F)n2)cc1NC(=O)c1cnn(-c2cccc(NC(=O)OC(C)(C)C)c2)c1` [Example 87], the pIC50 was below 6.00.
On to `Cc1ccc(-c2noc([C@H]3C[C@@H]3F)n2)cc1NC(=O)c1cnn2c1ccc1ccccc12` [Example 88], for which the pIC50 was 6.00 to 7.00.
As to `Cc1ccc(-c2noc([C@H]3C[C@@H]3F)n2)cc1NC(=O)c1cnn2ccc(C(=O)N3CCCCC3)cc12` [Example 89], the pIC50 is below 6.00.
For `Cc1ccc(-c2noc([C@H]3C[C@@H]3F)n2)cc1NC(=O)c1cnn2ccc(C(=O)NC3CCCCC3)cc12` [Example 91], the pIC50 is 6.00 to 7.00.
On to `Cc1ccc(-c2noc([C@H]3C[C@@H]3F)n2)cc1NC(=O)c1cnc2n1CCOc1ccccc1-2` [Example 101], for which the pIC50 was 6.00 to 7.00.
As for `C#Cc1ccc2c(C(=O)Nc3cc(-c4noc([C@H]5C[C@@H]5F)n4)ccc3C)cnn2c1` [Example 106], the pIC50 is above 7.00.
`Cc1ccc(-c2noc([C@H]3C[C@@H]3F)n2)cc1NC(=O)c1cnn2cc(-c3cn(C(F)F)nn3)ccc12` [Example 107]: the pIC50 is above 7.00.
Consider `Cc1ccc(-c2noc([C@H]3C[C@@H]3F)n2)cc1NC(=O)c1cnn2cc(-c3cnn(C(F)F)c3)ccc12` [Example 133], for which the pIC50 was above 7.00.
For the compound `Cc1ccc(-c2noc([C@H]3C[C@@H]3F)n2)cc1NC(=O)c1cnn2cc(-c3ccn(C(F)F)n3)ccc12` [Example 134], the pIC50 is above 7.00.
As to `Cc1ccc(-c2noc([C@H]3C[C@@H]3F)n2)cc1NC(=O)c1cnn2cc(-c3cnn(C4COC4)c3)ccc12` [Example 137], the pIC50 is above 7.00.
Turning to `Cc1ccc(-c2noc([C@H]3C[C@@H]3F)n2)cc1NC(=O)c1cnn2cc(-c3cnn(CCO)c3)ccc12` [Example 139], the pIC50 is above 7.00.
In the case of `Cc1ccc(-c2noc([C@H]3C[C@@H]3F)n2)cc1NC(=O)c1cnn2cc(-c3cnn(C(C)(C)CO)c3)ccc12` [Example 141], the pIC50 is above 7.00.
In the case of `Cc1ccc(-c2noc([C@H]3C[C@@H]3F)n2)cc1NC(=O)c1cnn2cc(-c3cnn(CC(C)(C)O)c3)ccc12` [Example 143], the pIC50 was above 7.00.
Turning to `Cc1ccc(-c2noc([C@H]3C[C@@H]3F)n2)cc1NC(=O)c1cnn2cc(Cl)c(N3CC4(COC4)C3)cc12` [Example 229], the negative logarithm of the IC50 (pIC50) is 6.00 to 7.00.
Regarding `Cc1ccc(-c2noc([C@H]3C[C@@H](OC(F)F)C3)n2)cc1NC(=O)c1cnn2ccc(N3CC4(COC4)C3)cc12` [Example 242], the pIC50 was above 7.00.
